{
  "source": "ChEMBL document CHEMBL1146528",
  "about": "“Isolation and structures of avicins D and G: in vitro tumor-inhibitory saponins derived from Acacia victoriae” (J Nat Prod, 2003)",
  "data": [
    {"tested_on": "Jurkat", "experiment": "Cytotoxicity against human Jurkat cells after 72 hrs by MTT assay", "assay_type": "functional, cell-based", "units": {"IC50": "µg/mL"}, "values": [
      {"smiles": "CC1(C)C[C@H]2C3=CC[C@@H]4[C@@]5(C)CC[C@H](O)C(C)(C)[C@@H]5CC[C@@]4(C)[C@]3(C)C[C@@H](O)[C@@]23C[C@@H]1OC3=O", "IC50": "> 100"},
      {"smiles": "C=C[C@](C)(O)CC/C=C(\\C)C(=O)O[C@H]1[C@H](O)[C@@H](O)[C@H](O[C@@](C)(C=C)CC/C=C(\\CO)C(=O)O[C@H]2C[C@]3(C(=O)O[C@@H]4O[C@H](CO)[C@@H](O)[C@H](O)[C@H]4O[C@@H]4O[C@@H](C)[C@H](O[C@@H]5O[C@@H](CO)[C@H](O)[C@H]5O)[C@@H](O[C@@H]5O[C@H](CO)[C@@H](O)[C@H](O)[C@H]5O)[C@H]4O)[C@H](O)C[C@]4(C)C(=CC[C@@H]5[C@@]6(C)CC[C@H](O[C@@H]7O[C@H](CO[C@@H]8O[C@H](C)[C@H](O)[C@H](O)[C@H]8O[C@@H]8OC[C@@H](O)[C@H](O)[C@H]8O)[C@@H](O)[C@H](O)[C@H]7NC(C)=O)C(C)(C)[C@@H]6CC[C@]54C)[C@@H]3CC2(C)C)O[C@@H]1C", "note": "[AVICIN G]", "IC50": 0.22},
      {"smiles": "CC(=O)N[C@H]1[C@H](O[C@H]2CC[C@]3(C)[C@H]4CC=C5[C@@H]6CC(C)(C)[C@@H](O)C[C@]6(C(=O)O)[C@H](O)C[C@@]5(C)[C@]4(C)CC[C@H]3C2(C)C)O[C@H](CO[C@@H]2O[C@H](C)[C@H](O)[C@H](O)[C@H]2O[C@@H]2OC[C@@H](O)[C@H](O)[C@H]2O)[C@@H](O)[C@@H]1O", "IC50": "> 100"},
      {"smiles": "C=C[C@](C)(O)CC/C=C(\\CO)C(=O)O[C@H]1[C@H](O)[C@@H](O)[C@H](O[C@@](C)(C=C)CC/C=C(\\CO)C(=O)O[C@H]2C[C@]3(C(=O)O[C@@H]4O[C@H](CO)[C@@H](O)[C@H](O)[C@H]4O[C@@H]4O[C@@H](C)[C@H](O[C@@H]5O[C@@H](CO)[C@H](O)[C@H]5O)[C@@H](O[C@@H]5O[C@H](CO)[C@@H](O)[C@H](O)[C@H]5O)[C@H]4O)[C@H](O)C[C@]4(C)C(=CC[C@@H]5[C@@]6(C)CC[C@H](O[C@@H]7O[C@H](CO[C@@H]8O[C@H](C)[C@H](O)[C@H](O)[C@H]8O[C@@H]8OC[C@@H](O)[C@H](O)[C@H]8O)[C@@H](O)[C@H](O)[C@H]7NC(C)=O)C(C)(C)[C@@H]6CC[C@]54C)[C@@H]3CC2(C)C)O[C@@H]1C", "note": "[AVICIN D]", "IC50": 0.58},
      {"smiles": "C=C[C@@](C)(CC/C=C(\\CO)C(=O)O[C@H]1C[C@]2(C(=O)O[C@@H]3O[C@H](CO)[C@@H](O)[C@H](O)[C@H]3O[C@@H]3O[C@@H](C)[C@H](O[C@@H]4O[C@@H](CO)[C@H](O)[C@H]4O)[C@@H](O[C@@H]4O[C@H](CO)[C@@H](O)[C@H](O)[C@H]4O)[C@H]3O)[C@H](O)C[C@]3(C)C(=CC[C@@H]4[C@@]5(C)CC[C@H](O[C@@H]6O[C@H](CO[C@@H]7O[C@H](C)[C@H](O)[C@H](O)[C@H]7O[C@@H]7OC[C@@H](O)[C@H](O)[C@H]7O)[C@@H](O)[C@H](O)[C@H]6NC(C)=O)C(C)(C)[C@@H]5CC[C@]43C)[C@@H]2CC1(C)C)O[C@@H]1O[C@H](C)[C@@H](O)[C@H](O)[C@H]1O", "note": "[JULIBROSIDE J29]", "IC50": 5.8}
    ]}
  ]
}
